Source: patent US20250221435A1, “Food Protein-Derived Peptides as Bitter Taste Blockers” (University of Manitoba, priority 2018, published 2025)
Values joined by “and” are separate entries in the source; they are usually repeats but may differ in a detail not shown here. Equal entries are not always repeated. “Also recorded” adds a separate entry of the source. Where two headings read alike, the source gives them in different places.

Assays:
T2R4 [1] = biological target: T1, T2R4 (Homo sapiens, UniProt Q9NYW5); experiment: Calcium mobilization in T2R4-expressing HEK 293T cell system; format: cell-based; settings: for blocking of quinine-dependent calcium release: 1 mM quinine plus 5 mg/mL fraction or 1 mM synthesized peptide
T1 construct: expressed in transfected cells
T1 sequence (Q9NYW5 1-299): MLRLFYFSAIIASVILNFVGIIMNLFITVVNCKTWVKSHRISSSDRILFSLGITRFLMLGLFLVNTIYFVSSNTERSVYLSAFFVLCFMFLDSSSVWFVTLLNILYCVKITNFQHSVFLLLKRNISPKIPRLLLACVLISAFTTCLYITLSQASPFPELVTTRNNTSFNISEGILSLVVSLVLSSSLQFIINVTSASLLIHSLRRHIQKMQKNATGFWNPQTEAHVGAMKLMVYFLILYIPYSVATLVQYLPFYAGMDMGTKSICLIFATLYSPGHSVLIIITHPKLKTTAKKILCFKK
Method: Determination of cellular calcium mobilization. Determination of the potential bitter taste-activating or blocking activity of BPH was carried out by measuring intracellular Ca^2+ mobilization using Fluo-4 NW calcium assay kit as previously described.^3 Stable transfected HEK293 cells expressing T2R4 and G-alpha 16/44 or HEK293T cells expressing only G-alpha 16/44 were used as experimental and negative control group, respectively. Around 1×10^5 cells/well plated in the 96-well BD-falcon biolux plate and then incubated at 37° C. in a CO2 incubator for 16 h. After incubation, the culture medium was substituted (for 40 min at 37° C. in the CO2 incubator followed by 30 min incubation at room temperature) with Fluo-4 NW dye solution, which contained lyophilized dye in 10 mL of assay buffer (1× Hanks' balanced salt solution, 20 mM HEPES) and 100 μL 2.5 mM probenecid added to prevent dye leakage from cytosol. Calcium mobilization was measured in terms of relative fluorescence units (RFUs) using a Flexstation-3 microplate reader (Molecular Devices, CA, USA) at 525 nm, following 494 nm excitation. […] The basal intracellular calcium levels were measured for the first 20 s followed by addition of appropriate concentration of ligands for another 120 s. To get the absolute RFUs, the basal RFU before adding the ligand, which was labeled minimum value (Min) was deducted from the maximum RFU (Max) obtained after stimulating with the ligand (absolute RFUs=Max−Min). […] Data were collected from two independent experiments, each done in triplicate.

T2R14 = biological target: T2, T2R14 (Homo sapiens, UniProt Q9NYV8); experiment: Peptides and agonist competition calcium mobilization assays on T2R14; format: cell-based; settings: for IC50: IC50 for T2R14 activated by diphenhydramine, diphenhydramine 0.5 mM, peptide 0.015 mM-1 mM, HEK293T cells stably expressing T2R14; for blocking of diphenhydramine-dependent T2R14 activation: competition calcium mobilization assay
T2 construct: expressed in transfected cells
T2 sequence (Q9NYV8 1-317): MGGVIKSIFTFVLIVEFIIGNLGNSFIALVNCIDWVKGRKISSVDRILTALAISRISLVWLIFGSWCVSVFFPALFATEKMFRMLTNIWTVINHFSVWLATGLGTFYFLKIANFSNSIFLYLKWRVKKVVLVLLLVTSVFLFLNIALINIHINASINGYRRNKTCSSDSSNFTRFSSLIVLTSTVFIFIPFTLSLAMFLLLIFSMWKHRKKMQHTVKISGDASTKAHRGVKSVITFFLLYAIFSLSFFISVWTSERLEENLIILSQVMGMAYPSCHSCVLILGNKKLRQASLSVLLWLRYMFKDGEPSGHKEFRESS
Method: FIG. 9. Peptides and agonist competition calcium mobilization assays on T2R14. HEK293T cells stably expressing T2R14 were treated with the agonist diphenhydramine (0.5 mM) and with increasing concentrations of Peptide 4 (ETSARHL) and Peptide 5 (AGDDAPRAVF) ranging from 0.015 mM-1 mM. Changes in intracellular calcium were measured (ΔRFUs), and IC50 values were calculated using GraphPad Prism 4.0. […] Data were collected from a minimum of two independent experiments carried out in triplicate.
To generalize the applicability of these peptides in blocking other T2Rs, we choose T2R14 as our next target.
Determination of cellular calcium mobilization. Determination of the potential bitter taste-activating or blocking activity of BPH was carried out by measuring intracellular Ca^2+ mobilization using Fluo-4 NW calcium assay kit as previously described.^3 Stable transfected HEK293 cells expressing T2R4 and G-alpha 16/44 or HEK293T cells expressing only G-alpha 16/44 were used as experimental and negative control group, respectively. Around 1×10^5 cells/well plated in the 96-well BD-falcon biolux plate and then incubated at 37° C. in a CO2 incubator for 16 h. After incubation, the culture medium was substituted (for 40 min at 37° C. in the CO2 incubator followed by 30 min incubation at room temperature) with Fluo-4 NW dye solution, which contained lyophilized dye in 10 mL of assay buffer (1× Hanks' balanced salt solution, 20 mM HEPES) and 100 μL 2.5 mM probenecid added to prevent dye leakage from cytosol. Calcium mobilization was measured in terms of relative fluorescence units (RFUs) using a Flexstation-3 microplate reader (Molecular Devices, CA, USA) at 525 nm, following 494 nm excitation. Based on the e-tongue data, BPH at 5 mg/mL, BCML at 59 nM and agonist quinine at 1 mM were used individually or in combination with peptides to determine activation of T2R4. BPH or BCML was then mixed with quinine (1 mM final concentration) to obtain 5 mg/mL or 59 nM, respectively and used to determine inactivation of T2R4. The basal intracellular calcium levels were measured for the first 20 s followed by addition of appropriate concentration of ligands for another 120 s. To get the absolute RFUs, the basal RFU before adding the ligand, which was labeled minimum value (Min) was deducted from the maximum RFU (Max) obtained after stimulating with the ligand (absolute RFUs=Max−Min). Next, the signals from the negative control group cells were deducted from the observed signal of experimental group cells to give ΔRFUs. Data were collected from two independent experiments, each done in triplicate. PRISM software version 4.03 (GraphPad Software, San Diego) was used for data analysis.

[2] = Estimation of bitter scores by electronic-tongue (e-tongue); settings: 1 mM quinine mixed with 5 mg/mL hydrolysate or 59 nM BCML
Method: Estimation of bitter scores by electronic-tongue (e-tongue). Each BPH was dissolved in distilled water to give 0.5, 1.0, 2.5, 5.0, and 10.0 mg/mL concentrations followed by filtration first through a 0.45 μm filter disc and then a 0.2 μm filter. Bitter scores of filtered BPH solutions (20 mL) were evaluated using the Astree II E-tongue system (Alpha M.O.S., Toulouse, France). This system is a completely automated taste analyzer equipped with seven sensors, BD, EB, JA, JG, KA, OA, and JE, based on the ChemFET technology (Chemical modified Field Effect Transistor) to analyze liquid samples. Firstly, 0.01 M HCl was used to condition and calibrate sensors and the reference electrode repeatedly until stable signals were obtained for all seven sensors with minimal or no noise and drift. […] Thereafter, the PLS bitterness standard model was constructed using several bitter taste compounds with known bitter taste scores determined from human panelists, including 0.24 mM and 2.36 mM caffeine, 0.03 mM and 0.12 mM quinine, 0.44 mM and 0.88 mM prednisolone, as well as 3.31 mM and 19.85 mM paracetamol. […] The 5 mg/ml sample was determined as the maximum strength useful to evaluate BPH bitterness intensity and this concentration was subsequently used to obtain bitter scores. […]

T2R4 [3] = biological target: T1, T2R4; settings: known T2R4 bitter taste blocker, positive control; read-out: IC50 for quinine of known T2R4 bitter taste blocker; cited from earlier work
[4] = 10 mM quinine solution; cited from earlier work

Question: Which results are given for `CC(C)[C@H](NC(=O)[C@H](C)NC(=O)[C@H](CCCNC(=N)N)NC(=O)[C@@H]1CCCN1C(=O)[C@H](C)NC(=O)[C@H](CC(=O)O)NC(=O)[C@H](CC(=O)O)NC(=O)CNC(=O)[C@H](C)N)C(=O)N[C@@H](Cc1ccccc1)C(=O)O` [AGDDAPRAVF]?
Answer: IC50 (T2R4 [1]): 85 µM; blocking of quinine-dependent calcium release (T2R4 [1]; T2R4-expressing HEK 293T cells): less calcium mobilization; also recorded: most effective blocker; also recorded: suppressed quinine-dependent calcium release; IC50 (T2R14): ~100 µM and 118 µM; blocking of diphenhydramine-dependent T2R14 activation (T2R14): effective in blocking

Question: For `NCCCC[C@@H](C(=O)O)N(CC(=O)O)CC(=O)O` [BCML, Nα,Nα-bis(carboxymethyl)-I-lysine], which “suppression of quinine bitterness intensity (e-tongue)” value [2] is on record?
Answer: most decrease

Question: What about the IC50 (T2R4 [3]) of the same molecule?
Answer: 59 nM

Question: Which results are given for `CC(C)C[C@H](NC(=O)[C@H](Cc1c[nH]cn1)NC(=O)[C@H](CCCNC(=N)N)NC(=O)[C@H](C)NC(=O)[C@H](CO)NC(=O)[C@@H](NC(=O)[C@@H](N)CCC(=O)O)[C@@H](C)O)C(=O)O` [ETSARHL]?
Answer: blocking of quinine-dependent calcium release (T2R4 [1]; T2R4-expressing HEK 293T cells): less calcium mobilization; also recorded: suppressed quinine-dependent calcium release; also recorded: most effective; IC50 (T2R14): ~100 µM and 121 µM; blocking of diphenhydramine-dependent T2R14 activation (T2R14): effective in blocking

Question: For `C=C[C@H]1C[N@@]2CC[C@H]1C[C@H]2[C@H](O)c1ccnc2ccc(OC)cc12` [Quinine, reference compound], which “calcium mobilization (ΔRFU), sample alone” value (T2R4 [1]; T2R4-expressing HEK 293T cells, hydrolysates 5 mg/mL, quinine 1 mM, peptides 1 mM) is on record?
Answer: highest activity

Question: With `Nc1ncnc2c1ncn2[C@H]1C[C@H](O)[C@@H](COP(=O)(O)OP(=O)(O)OP(=O)(O)O)O1` [dATP, 2-deoxyadenosine triphosphate] as the molecule, how does the “reduction in bitterness of quinine solution” value [4] read?
Answer: 60%

Question: With “AAMY: peptide AAMY identified from CHYMOTRYPSIN hydrolysate fraction CH-F4-5, chemically synthesized (synthesized bitter taste blocker)” as the molecule, how does the “blocking of quinine-dependent calcium release” value (T2R4 [1]; T2R4-expressing HEK 293T cells) read?
Answer: less calcium mobilization; also recorded: suppressed quinine-dependent calcium release

Question: For “AAYM: peptide AAYM identified from CHYMOTRYPSIN hydrolysate fraction CH-F4-5, chemically synthesized (synthesized bitter taste blocker)”, which “blocking of quinine-dependent calcium release” value (T2R4 [1]; T2R4-expressing HEK 293T cells) is on record?
Answer: suppressed quinine-dependent calcium release

Question: Which “reduction in bitterness of quinine solution” value [4] does the source give for cytosine monophosphate [CMP] here?
Answer: 40%
